Test results published in publication PMC7862291, “Full-length in meso structure and mechanism of rat kynurenine 3-monooxygenase inhibition” (Communications Biology, 2021).
“And” between values parts separate entries of the source, which are not always exact repeats. Identical values can stand only once.

What was measured:
hKMO = molecular target: T1, hKMO (Homo sapiens, UniProt O15229); experiment: Human KMO enzyme (cell-free) assay, NADPH consumption by absorbance; assay type: biochemical
T1 construct: purchased Origene
Procedure: (§1) Human KMO was purchased from Origene and used to assay compounds. Full-length Rat-KMO purified for crystallisation was used to assay compounds. Full-length Rat-KMO-expressing membranes were used for mutant assays (Fig. 4b) only. […] Images were taken using Odyssey CLX (LI-COR Biosciences) and quantified using ImageStudio2.0 (LI-COR Biosciences) software.
(§2) Test compounds were dissolved in DMSO and diluted with assay buffer containing 50 mM HEPES, 2 mM MgCl2, 0.5 mM EGTA, 1 mM DTT, 0.05% Tween20 and 0.005% of antiform SI (pH = about 7.9) to prepare a 4% DMSO solution. […] After 5 min of pre-incubation, reactions were started by adding 10 μL of substrate solution containing 2.4 mM kynurenine and 0.6 mM NADPH. Reactions were run for 90 min at 30 °C, then terminated by adding 5 μL of stop buffer (40 mM maleimide, 2 mM WST-9 and 0.1 mM 1-methoky PMS in water). […] Liposomal assays were performed in the same manner except that the composition of the assay buffer was changed (phosphate-buffered saline, 2 mM MgCl2, 1 mM DTT, 0.05% Tween 20).
(§3) Compound assays were analysed and plotted on graphs using Prism (GraphPad Software Inc. San Diego, CA, USA).

[1] = molecular target: T2, HEK293 cells stably expressing rat KMO (Rattus norvegicus, UniProt O88867); experiment: Cell-based rat KMO inhibition assay (LC/MS of 3-hydroxykynurenine)
T2 construct: expressed in transfected cells
Procedure: (§4) HEK293 cells stably expressing human or rat KMO were maintained in DMEM containing 10% fetal bovine serum, 50 units/mL penicillin, 50 μg/mL streptomycin and 0.2 mg⁄mL zeocine. […] After 2 overnights, the medium was replaced with 10 μL/well of assay buffer (1 × HBSS containing 20 mM HEPES). Ten microliters per well of the diluted test compounds (final, 0–30 μM, 0.3% DMSO) were added to the respective wells. After ~30 min of pre-incubation at 37 °C, reactions were started by adding 20 μL of substrate solution containing 0.2 mM kynurenine. Reactions were run for 2 h at 37 °C, the assay buffer was discarded and the plate was immediately frozen and stored at −30 °C until LC/MS analysis.
(§5) An 80 µL volume of cold acetonitrile with 2% formic acid was added to the cell pellet in a 384-well plate and centrifuged at 3000 rpm for 10 min at 4 °C. A 40 µL volume of the supernatant was transferred to a new 384-well plate and evaporated to dryness under nitrogen gas at 45 °C. The residue was reconstituted in 100 µL of acetonitrile/water (10:90, v/v) with 0.1% formic acid, and 1 µL was injected into the LC-MS/MS system.
(§6) LC/MS/MS was performed on a Shimadzu UFLC Nexera X2 (Shimadzu Corporation, Japan) and an QTRAP® 5500 LC-MS/MS System (SCIEX, Framingham, USA). Chromatographic separation was performed using an Allure PFP Propyl analytical column (5 µm, 2.1 × 100 mm) maintained at 50 °C. The autosampler temperature was set at 15 °C. The mobile phase consisted of formic acid/water/acetonitrile/methanol (0.5/500/250/250, v/v/v/v) and the flow rate was set at 0.3 mL/min. 3-hydroxykynurenine was eluted from the LC column at a retention time of 1.2 min. The MS system was operated using electrospray ionization (ESI) in positive mode. The optimum conditions were curtain gas, 20 psi; ion spray voltage, 5500 V; heated nebulizer temperature (TEM), 700 °C; nebulizing gas (GS1), 70 psi; and heater gas (GS2), 70 psi. […] Analyst® software (SCIEX, Framingham, USA) was used for system control and MultiQuant™ Software (SCIEX, Framingham, USA) was used for data analysis.
as §3

[2] = molecular target: T3, HEK293 cells stably expressing human KMO (Homo sapiens, UniProt O15229); experiment: Cell-based human KMO inhibition assay (LC/MS of 3-hydroxykynurenine)
T3 construct: expressed in transfected cells
Procedure: as §4, §5, §6, §3

Rat KMO = molecular target: T4, Rat KMO (Rattus norvegicus, UniProt O88867); experiment: Rat KMO enzyme (cell-free) assay, NADPH consumption by absorbance; assay type: biochemical
T4 construct: The GST-tagged full-length KMO (1-478) baculovirus vector contained a thrombin cleavage site; GST (thrombin cleavage site between GST and KMO) (N, cleaved yes); made in house; host or cells: Spodoptera frugiperda (Sf9), baculovirus
Procedure: as §1, §2, §3

T3 sequence (O15229 whole entry): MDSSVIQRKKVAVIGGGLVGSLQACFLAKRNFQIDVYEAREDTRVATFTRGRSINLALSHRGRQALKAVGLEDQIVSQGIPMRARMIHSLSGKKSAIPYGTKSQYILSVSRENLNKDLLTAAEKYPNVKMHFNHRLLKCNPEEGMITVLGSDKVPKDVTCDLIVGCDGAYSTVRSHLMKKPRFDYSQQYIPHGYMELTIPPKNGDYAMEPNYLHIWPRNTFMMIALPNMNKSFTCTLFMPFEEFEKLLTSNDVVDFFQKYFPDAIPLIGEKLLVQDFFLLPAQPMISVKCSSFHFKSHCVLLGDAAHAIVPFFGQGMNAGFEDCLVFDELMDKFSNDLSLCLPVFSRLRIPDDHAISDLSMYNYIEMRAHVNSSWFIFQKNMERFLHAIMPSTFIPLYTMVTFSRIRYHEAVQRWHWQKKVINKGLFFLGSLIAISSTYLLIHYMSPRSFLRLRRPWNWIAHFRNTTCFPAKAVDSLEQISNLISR
T1 sequence (O15229 whole entry): as above
T2 sequence (O88867 whole entry): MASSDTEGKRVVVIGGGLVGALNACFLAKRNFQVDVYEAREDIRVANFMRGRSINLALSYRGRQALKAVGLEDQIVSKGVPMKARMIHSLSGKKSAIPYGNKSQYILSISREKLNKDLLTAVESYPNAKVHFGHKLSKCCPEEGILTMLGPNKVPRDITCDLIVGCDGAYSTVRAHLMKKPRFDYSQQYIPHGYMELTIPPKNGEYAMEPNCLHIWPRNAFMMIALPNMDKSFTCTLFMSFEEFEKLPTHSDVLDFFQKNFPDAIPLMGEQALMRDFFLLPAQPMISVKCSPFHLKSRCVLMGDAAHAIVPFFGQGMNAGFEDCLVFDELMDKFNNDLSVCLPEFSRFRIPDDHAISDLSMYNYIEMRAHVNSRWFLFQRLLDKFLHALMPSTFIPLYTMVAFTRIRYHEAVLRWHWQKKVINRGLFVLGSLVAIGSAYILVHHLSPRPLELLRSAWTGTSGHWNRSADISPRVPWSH
T4 sequence (O88867 whole entry): as above

Cc1cnn(-c2cccc(C(=O)O)c2)c1-c1ccc(Cl)c(F)c1 [Compound 2]
IC50 (hKMO; cell-free enzyme assay, high kynurenine, read-out: Human KMO IC50): 7.1 nM
inhibition rate, Hs-KMO cell-free assay (Figure 1A source data) (hKMO; conc 0.0003 μM, duplicates): 0.420% and -1.736%
inhibition rate, Hs-KMO cell-free assay (Figure 1A source data) (hKMO; conc 0.001 μM, duplicates): 9.914%
inhibition at 0.001 µM (hKMO; conc 0.001 μM, duplicates, read-out: inhibition rate, Hs-KMO cell-free assay (Figure 1A source data)): 12.1%
inhibition rate, Hs-KMO cell-free assay (Figure 1A source data) (hKMO; conc 0.003 μM, duplicates): 25.289%
inhibition at 0.003 µM (hKMO; conc 0.003 μM, duplicates, read-out: inhibition rate, Hs-KMO cell-free assay (Figure 1A source data)): 27.2%
inhibition rate, Hs-KMO cell-free assay (Figure 1A source data) (hKMO; conc 0.01 μM, duplicates): 59.651%
inhibition at 0.01 µM (hKMO; conc 0.01 μM, duplicates, read-out: inhibition rate, Hs-KMO cell-free assay (Figure 1A source data)): 57.4%
inhibition rate, Hs-KMO cell-free assay (Figure 1A source data) (hKMO; conc 0.03 μM, duplicates): 87.349%
inhibition at 0.03 µM (hKMO; conc 0.03 μM, duplicates, read-out: inhibition rate, Hs-KMO cell-free assay (Figure 1A source data)): 85.6%
inhibition rate, Hs-KMO cell-free assay (Figure 1A source data) (hKMO; conc 0.1 μM, duplicates): 95.022%
inhibition at 0.1 µM (hKMO; conc 0.1 μM, duplicates, read-out: inhibition rate, Hs-KMO cell-free assay (Figure 1A source data)): 96.5%
inhibition rate, Hs-KMO cell-free assay (Figure 1A source data) (hKMO; conc 0.3 μM, duplicates): 105.860%
inhibition at 0.3 µM (hKMO; conc 0.3 μM, duplicates, read-out: inhibition rate, Hs-KMO cell-free assay (Figure 1A source data)): 100%
inhibition rate, Hs-KMO cell-free assay (Figure 1A source data) (hKMO; conc 1 μM, duplicates): 100.287%
inhibition at 1 µM (hKMO; conc 1 μM, duplicates, read-out: inhibition rate, Hs-KMO cell-free assay (Figure 1A source data)): 102%
inhibition at 0.1 µM ([1]; HEK293, conc 0.1 μM, duplicates, read-out: inhibition rate, Rat-KMO cellular assay (Figure 1D source data)): 6.06%
inhibition at 0.3 µM ([1]; HEK293, conc 0.3 μM, duplicates, read-out: inhibition rate, Rat-KMO cellular assay (Figure 1D source data)): 28.6%
inhibition at 1 µM ([1]; HEK293, conc 1 μM, duplicates, read-out: inhibition rate, Rat-KMO cellular assay (Figure 1D source data)): 29.2%
inhibition at 3 µM ([1]; HEK293, conc 3 μM, duplicates, read-out: inhibition rate, Rat-KMO cellular assay (Figure 1D source data)): 55.7%
inhibition at 10 µM ([1]; HEK293, conc 10 μM, duplicates, read-out: inhibition rate, Rat-KMO cellular assay (Figure 1D source data)): 81.2%
inhibition at 30 µM ([1]; HEK293, conc 30 μM, duplicates, read-out: inhibition rate, Rat-KMO cellular assay (Figure 1D source data)): 94.7%
IC50 ([1]; HEK293 cells expressing rat KMO, LC/MS): 1900 nM
inhibition rate, Rat-KMO cellular assay (Figure 1D source data) ([1]; conc 0.1 μM, duplicates): 5.770%
inhibition rate, Rat-KMO cellular assay (Figure 1D source data) ([1]; conc 0.3 μM, duplicates): 28.560%
inhibition rate, Rat-KMO cellular assay (Figure 1D source data) ([1]; conc 1 μM, duplicates): 33.805%
inhibition rate, Rat-KMO cellular assay (Figure 1D source data) ([1]; conc 3 μM, duplicates): 50.255%
inhibition rate, Rat-KMO cellular assay (Figure 1D source data) ([1]; conc 10 μM, duplicates): 82.819%
inhibition rate, Rat-KMO cellular assay (Figure 1D source data) ([1]; conc 30 μM, duplicates): 94.698%
inhibition at 0.03 µM ([2]; HEK293, conc 0.03 μM, duplicates, read-out: inhibition rate, Hs-KMO cellular assay (Figure 1C source data)): 51.3%
inhibition at 0.1 µM ([2]; HEK293, conc 0.1 μM, duplicates, read-out: inhibition rate, Hs-KMO cellular assay (Figure 1C source data)): 76.7%
inhibition at 0.3 µM ([2]; HEK293, conc 0.3 μM, duplicates, read-out: inhibition rate, Hs-KMO cellular assay (Figure 1C source data)): 92.2%
inhibition at 1 µM ([2]; HEK293, conc 1 μM, duplicates, read-out: inhibition rate, Hs-KMO cellular assay (Figure 1C source data)): 102%
inhibition at 3 µM ([2]; HEK293, conc 3 μM, duplicates, read-out: inhibition rate, Hs-KMO cellular assay (Figure 1C source data)): 104%
inhibition at 10 µM ([2]; HEK293, conc 10 μM, duplicates, read-out: inhibition rate, Hs-KMO cellular assay (Figure 1C source data)): 104%
inhibition at 30 µM ([2]; HEK293, conc 30 μM, duplicates, read-out: inhibition rate, Hs-KMO cellular assay (Figure 1C source data)): 105%
IC50 ([2]; HEK293 cells expressing human KMO, LC/MS, read-out: Human cell-based assay IC50): 30 nM
inhibition rate, Hs-KMO cellular assay (Figure 1C source data) ([2]; conc 0.03 μM, duplicates): 49.094%
inhibition rate, Hs-KMO cellular assay (Figure 1C source data) ([2]; conc 0.1 μM, duplicates): 80.095%
inhibition rate, Hs-KMO cellular assay (Figure 1C source data) ([2]; conc 0.3 μM, duplicates): 94.377%
inhibition rate, Hs-KMO cellular assay (Figure 1C source data) ([2]; conc 1 μM, duplicates): 98.875%
inhibition rate, Hs-KMO cellular assay (Figure 1C source data) ([2]; conc 3 μM, duplicates): 103.175%
inhibition rate, Hs-KMO cellular assay (Figure 1C source data) ([2]; conc 10 μM, duplicates): 102.973%
inhibition rate, Hs-KMO cellular assay (Figure 1C source data) ([2]; conc 30 μM, duplicates): 104.572%
IC50 (Rat KMO; cell-free enzyme assay, high kynurenine): 150 nM
inhibition rate, Rat-KMO cell-free assay (Figure 1B source data) (Rat KMO; conc 0.03 μM, duplicates): 20.744%
inhibition at 0.03 µM (Rat KMO; conc 0.03 μM, duplicates, read-out: inhibition rate, Rat-KMO cell-free assay (Figure 1B source data)): 18%
inhibition rate, Rat-KMO cell-free assay (Figure 1B source data) (Rat KMO; conc 0.1 μM, duplicates): 47.122%
inhibition at 0.1 µM (Rat KMO; conc 0.1 μM, duplicates, read-out: inhibition rate, Rat-KMO cell-free assay (Figure 1B source data)): 46%
inhibition rate, Rat-KMO cell-free assay (Figure 1B source data) (Rat KMO; conc 0.3 μM, duplicates): 63.717%
inhibition at 0.3 µM (Rat KMO; conc 0.3 μM, duplicates, read-out: inhibition rate, Rat-KMO cell-free assay (Figure 1B source data)): 62.8%
inhibition rate, Rat-KMO cell-free assay (Figure 1B source data) (Rat KMO; conc 1 μM, duplicates): 81.108%
inhibition at 1 µM (Rat KMO; conc 1 μM, duplicates, read-out: inhibition rate, Rat-KMO cell-free assay (Figure 1B source data)): 84.3%
inhibition rate, Rat-KMO cell-free assay (Figure 1B source data) (Rat KMO; conc 3 μM, duplicates): 90.360%
inhibition at 3 µM (Rat KMO; conc 3 μM, duplicates, read-out: inhibition rate, Rat-KMO cell-free assay (Figure 1B source data)): 87.2%
inhibition rate, Rat-KMO cell-free assay (Figure 1B source data) (Rat KMO; conc 10 μM, duplicates): 90.175%
inhibition at 10 µM (Rat KMO; conc 10 μM, duplicates, read-out: inhibition rate, Rat-KMO cell-free assay (Figure 1B source data)): 91.4%
inhibition rate, Rat-KMO cell-free assay (Figure 1B source data) (Rat KMO; conc 30 μM, duplicates): 94.310%
inhibition at 30 µM (Rat KMO; conc 30 μM, duplicates, read-out: inhibition rate, Rat-KMO cell-free assay (Figure 1B source data)): 91.7%
inhibition rate, Rat-KMO cell-free assay (Figure 1B source data) (Rat KMO; conc 100 μM, duplicates): 101.150%
inhibition at 100 µM (Rat KMO; conc 100 μM, duplicates, read-out: inhibition rate, Rat-KMO cell-free assay (Figure 1B source data)): 89.9%
